Among the data in ChEMBL document CHEMBL5291721, “A preclinical secondary pharmacology resource illuminates target-adverse drug reaction associations of marketed drugs” (Nat Commun, 2023) are AC50 values, retold here.

Assay [1] concerns the target T1, Adenosine receptor A1 (Homo sapiens, UniProt P30542).
T1 sequence (P30542 whole entry): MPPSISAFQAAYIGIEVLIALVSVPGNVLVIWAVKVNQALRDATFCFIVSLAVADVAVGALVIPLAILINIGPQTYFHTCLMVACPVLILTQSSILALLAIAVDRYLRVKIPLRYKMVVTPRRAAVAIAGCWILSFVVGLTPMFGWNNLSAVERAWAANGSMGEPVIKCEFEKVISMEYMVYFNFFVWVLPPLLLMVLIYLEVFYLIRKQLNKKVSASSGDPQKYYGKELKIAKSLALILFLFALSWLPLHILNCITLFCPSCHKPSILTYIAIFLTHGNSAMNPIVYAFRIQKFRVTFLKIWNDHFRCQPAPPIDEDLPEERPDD

Assay [2] has as its target T2, Gastrin/cholecystokinin type B receptor (Homo sapiens, UniProt P32239).
T2 sequence (P32239 whole entry): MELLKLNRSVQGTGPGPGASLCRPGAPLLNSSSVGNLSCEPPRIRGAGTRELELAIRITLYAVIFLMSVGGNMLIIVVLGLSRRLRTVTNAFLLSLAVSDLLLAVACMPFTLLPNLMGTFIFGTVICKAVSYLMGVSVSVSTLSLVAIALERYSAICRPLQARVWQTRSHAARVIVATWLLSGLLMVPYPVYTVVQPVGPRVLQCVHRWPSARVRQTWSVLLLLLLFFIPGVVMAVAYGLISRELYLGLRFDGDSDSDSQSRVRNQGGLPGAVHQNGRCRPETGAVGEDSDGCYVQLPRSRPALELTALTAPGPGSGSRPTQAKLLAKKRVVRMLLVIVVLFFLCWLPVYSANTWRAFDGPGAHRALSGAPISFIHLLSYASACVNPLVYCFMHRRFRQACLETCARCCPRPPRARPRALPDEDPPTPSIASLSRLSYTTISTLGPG

Assay [3] concerns the target T3, Glucocorticoid receptor (Homo sapiens, UniProt P04150).
T3 sequence (P04150 whole entry): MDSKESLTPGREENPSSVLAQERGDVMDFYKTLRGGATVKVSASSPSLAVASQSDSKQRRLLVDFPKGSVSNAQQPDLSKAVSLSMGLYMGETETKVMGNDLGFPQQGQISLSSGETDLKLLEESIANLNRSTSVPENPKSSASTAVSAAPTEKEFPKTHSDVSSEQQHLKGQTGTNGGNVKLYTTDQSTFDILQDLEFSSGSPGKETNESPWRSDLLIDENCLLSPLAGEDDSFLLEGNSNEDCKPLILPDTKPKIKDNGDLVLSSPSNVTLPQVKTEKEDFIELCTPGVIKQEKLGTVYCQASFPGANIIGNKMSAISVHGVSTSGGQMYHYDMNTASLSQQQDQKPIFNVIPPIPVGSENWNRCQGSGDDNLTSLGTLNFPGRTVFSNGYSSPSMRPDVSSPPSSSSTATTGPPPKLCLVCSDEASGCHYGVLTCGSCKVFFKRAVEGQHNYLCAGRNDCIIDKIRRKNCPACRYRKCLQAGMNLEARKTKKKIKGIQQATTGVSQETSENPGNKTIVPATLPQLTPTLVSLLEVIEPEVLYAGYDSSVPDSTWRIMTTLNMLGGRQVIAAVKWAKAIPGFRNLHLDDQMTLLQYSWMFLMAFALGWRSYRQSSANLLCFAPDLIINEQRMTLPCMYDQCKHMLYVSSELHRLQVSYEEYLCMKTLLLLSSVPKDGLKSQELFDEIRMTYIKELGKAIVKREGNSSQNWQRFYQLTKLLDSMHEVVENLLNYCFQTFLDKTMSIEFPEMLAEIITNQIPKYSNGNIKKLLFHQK

Assay [4] concerns the target Sodium-dependent serotonin transporter (Homo sapiens, UniProt P31645).
The target of assay [5] is T4, Muscarinic acetylcholine receptor M2 (Homo sapiens, UniProt P08172).
T4 sequence (P08172 whole entry): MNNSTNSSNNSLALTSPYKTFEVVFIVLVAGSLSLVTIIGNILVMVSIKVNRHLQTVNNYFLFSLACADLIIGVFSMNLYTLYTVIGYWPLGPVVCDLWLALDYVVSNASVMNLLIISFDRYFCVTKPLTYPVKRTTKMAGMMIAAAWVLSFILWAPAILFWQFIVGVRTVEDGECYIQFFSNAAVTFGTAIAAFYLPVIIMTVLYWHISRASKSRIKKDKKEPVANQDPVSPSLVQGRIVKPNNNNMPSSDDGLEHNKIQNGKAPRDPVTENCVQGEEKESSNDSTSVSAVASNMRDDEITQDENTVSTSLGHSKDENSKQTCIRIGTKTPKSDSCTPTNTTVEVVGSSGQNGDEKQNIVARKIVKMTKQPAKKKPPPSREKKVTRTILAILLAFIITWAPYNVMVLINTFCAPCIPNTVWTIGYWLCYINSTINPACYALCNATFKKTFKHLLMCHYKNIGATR
The assay is classed as functional, cell-based.

Assay [6] addresses T5, 5-hydroxytryptamine receptor 1A (Homo sapiens, UniProt P08908).
T5 sequence (P08908 whole entry): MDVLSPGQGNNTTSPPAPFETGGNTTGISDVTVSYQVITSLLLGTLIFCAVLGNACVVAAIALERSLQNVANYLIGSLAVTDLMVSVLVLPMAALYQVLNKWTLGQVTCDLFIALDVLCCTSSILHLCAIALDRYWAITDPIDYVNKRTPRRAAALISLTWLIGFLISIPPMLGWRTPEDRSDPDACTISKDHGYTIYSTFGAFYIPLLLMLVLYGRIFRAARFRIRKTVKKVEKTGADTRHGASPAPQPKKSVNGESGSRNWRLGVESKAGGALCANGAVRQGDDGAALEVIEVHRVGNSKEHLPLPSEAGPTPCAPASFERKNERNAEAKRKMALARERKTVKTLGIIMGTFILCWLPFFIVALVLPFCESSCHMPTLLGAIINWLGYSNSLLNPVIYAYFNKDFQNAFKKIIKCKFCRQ
The assay is classed as functional, cell-based.

Assay [7] has as its target 5-hydroxytryptamine receptor 2A (Homo sapiens, UniProt P28223). The assay is classed as functional, cell-based.

Each structure is given as a SMILES string.
Note: assay procedure not described here.

Sodium-dependent serotonin transporter, sequence (P31645 whole entry): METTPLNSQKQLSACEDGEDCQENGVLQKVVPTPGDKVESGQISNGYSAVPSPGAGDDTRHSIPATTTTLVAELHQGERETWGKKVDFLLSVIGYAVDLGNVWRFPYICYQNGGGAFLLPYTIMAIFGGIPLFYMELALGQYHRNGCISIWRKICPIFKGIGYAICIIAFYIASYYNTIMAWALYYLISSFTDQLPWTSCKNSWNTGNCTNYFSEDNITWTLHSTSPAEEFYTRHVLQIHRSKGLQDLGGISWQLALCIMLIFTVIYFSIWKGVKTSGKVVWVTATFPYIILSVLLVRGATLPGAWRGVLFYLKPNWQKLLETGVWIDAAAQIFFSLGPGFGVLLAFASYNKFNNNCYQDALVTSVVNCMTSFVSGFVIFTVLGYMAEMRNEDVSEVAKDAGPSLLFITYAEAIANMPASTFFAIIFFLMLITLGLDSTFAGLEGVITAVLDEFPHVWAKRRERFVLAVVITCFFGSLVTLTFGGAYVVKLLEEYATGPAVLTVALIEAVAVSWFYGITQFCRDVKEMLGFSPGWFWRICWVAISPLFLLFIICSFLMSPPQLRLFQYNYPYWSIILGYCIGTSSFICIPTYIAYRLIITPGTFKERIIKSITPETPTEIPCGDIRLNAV
5-hydroxytryptamine receptor 2A, sequence (P28223 whole entry): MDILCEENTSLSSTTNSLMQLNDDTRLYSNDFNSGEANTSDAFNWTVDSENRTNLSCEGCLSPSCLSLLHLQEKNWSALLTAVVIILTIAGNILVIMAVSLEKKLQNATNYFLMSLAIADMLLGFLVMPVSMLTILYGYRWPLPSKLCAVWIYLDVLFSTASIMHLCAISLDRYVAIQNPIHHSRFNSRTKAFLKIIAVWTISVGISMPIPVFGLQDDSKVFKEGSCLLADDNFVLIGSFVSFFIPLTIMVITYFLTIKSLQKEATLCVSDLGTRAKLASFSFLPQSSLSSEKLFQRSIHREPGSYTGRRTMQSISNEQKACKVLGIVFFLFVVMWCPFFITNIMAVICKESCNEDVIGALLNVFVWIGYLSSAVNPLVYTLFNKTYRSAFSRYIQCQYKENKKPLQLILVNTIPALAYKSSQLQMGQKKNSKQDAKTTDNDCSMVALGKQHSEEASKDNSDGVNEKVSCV

`C[C@]1(COc2ccc(N3CCC(Oc4ccc(OC(F)(F)F)cc4)CC3)cc2)Cn2cc([N+](=O)[O-])nc2O1`: the half-maximal activity concentration (AC50) in assay [1] was more than 30 µM; in assay [2], more than 30 µM; in assay [3], more than 30 µM; in assay [4], more than 10 µM.

Regarding `CC(=O)OCC[N+](C)(C)C` [ACETYLCHOLINE], the half-maximal activity concentration (AC50) in assay [1], in assay [2], in assay [3] and in assay [4] was more than 30 µM in each case.

`O=C(Nc1nc(-c2cc(Cl)cs2)c(N2CCN(C3CCCCC3)CC2)s1)c1cnc(N2CCC(C(=O)O)CC2)c(Cl)c1` [AVATROMBOPAG]: the AC50 is more than 30 µM in assay [1], more than 10 µM in assay [2] and more than 10 µM in assay [4].

As for `CO[C@@]1(NC(=O)CSCC#N)C(=O)N2C(C(=O)O)=C(CSc3nnnn3C)CS[C@@H]21` [CEFMETAZOLE], the AC50 in assay [1], in assay [5] and in assay [6] was more than 30 µM throughout.

`CO/N=C(\C(=O)N[C@@H]1C(=O)N2C(C(=O)[O-])=C(C[n+]3cccc4c3CCC4)CS[C@H]12)c1csc(N)n1` [CEFPIROME]: the AC50 in assay [1], in assay [5] and in assay [7] was more than 30 µM each time.

Take `CC[C@H]1OC(=O)[C@H](C)[C@@H](O[C@H]2C[C@@](C)(OC)[C@@H](O)[C@H](C)O2)[C@H](C)[C@@H](O[C@@H]2O[C@H](C)C[C@H](N(C)C)[C@H]2O)[C@](C)(OC)C[C@@H](C)C(=O)[C@H](C)[C@@H](O)[C@]1(C)O` [CLARITHROMYCIN]: the AC50 in assay [1], in assay [2], in assay [5] and in assay [3] was more than 30 µM each time.

As to `Oc1c(I)cc(Cl)c2cccnc12` [CLIOQUINOL], the half-maximal activity concentration (AC50) in assay [1], in assay [6] and in assay [7] was more than 30 µM each time.

`COCCCOc1ccnc(C[S+]([O-])c2nc3ccccc3[nH]2)c1C` (centres undefined) [RABEPRAZOLE]: the AC50 in assay [1] is more than 30 µM; in assay [2] it was more than 30 µM; in assay [5] it was more than 10 µM; in assay [6] it was more than 10 µM; in assay [3] it was more than 30 µM.

As a reminder, the AC50 is the concentration giving half of the maximal activity seen. The low end stands for activity at low concentration, the high end for activity only at high concentration.
